± gives the expanded uncertainty stated by the source.
Conditions: 300 K; 101.33 kPa; Crystal; Coaxial cylinder method

thermal conductivity: 15 ± 3 W/m/K
Structure (SMILES): [BH3-][NH3+] [ammonia borane]

Reference: the NIST ThermoML archive (doi:10.1016/j.tca.2006.10.012)
